PMC10077444, “Evaluation of In Vivo Biological Activity Profiles of Isoindole-1,3-dione Derivatives: Cytotoxicity, Toxicology, and Histopathology Studies” (ACS Omega, 2023)
Values joined by “and” are separate entries in the source; they are usually repeats but may differ in a detail not shown here. Equal values may be shown once. “Also recorded” adds a separate entry of the source.

Tests used:
[1] = Weight and survival of tumor-bearing nude mice during and after treatment; type: in vivo; settings: for weight of nude mice: individual mice (1)-(5); for survival of tumor-bearing nude mice: five mice per group, observed for 60 days
Description: Male atypical nude mice, 6–8 weeks old, were used for in vivo xenograft tumor models. […] For the purpose of xenograft administration, nude mice were injected subcutaneously with 100 μL of 5 × 10^6 A549-Luc cell suspension. The presence of cancer after cell administration to nude mice was followed by imaging with an IVIS device. In order to monitor tumor formation and tumor volume detection, luciferin [Biovision Inc., USA; 12 mg/mL in phosphate-buffered saline (PBS)] was injected intraperitoneally followed by visualization with IVIS 5 min later. When tumor volume reaches about 2000 mm^3, cancerous nudes are divided into three groups: the control group, 3 group, and 4 group. Grouping was made as 3–5 animals in each group. The following procedures were prepared according to the groups, and then they were implemented. In addition, the weights of nude mice were regularly checked and recorded.
Male atypical nude mice aged 6–8 weeks are commonly used in in vivo xenograft tumor models. A549-luc lung cancer cells were injected into nude mice in all three groups, and tumor growth was induced with a xenograft model. For xenograft administration, 100 μL of 5 × 10^6 A549-luc cell suspension was injected subcutaneously into nude mice. After cell application to nude mice, it was determined whether there was cancer or not by imaging with the IVIS device. After the cancer groups were formed, the treatment phase was started. […] Each prepared sample was given to the animals by tail vein administration, three doses (as described in Section 2.3) per week, and the IVIS images taken at 5 min after luciferin (200 μL of 12 mg/mL stock administered subcutaneously) at certain time intervals were evaluated.

A549 cell lines = experiment: MTT proliferation assay, A549 cells; type: cell-based; settings: Homo sapiens, A549 (A549-Luc) cells
Description: The A549 (human lung carcinoma) cell line was grown in a Dulbecco’s Modified Eagle Medium (DMEM) containing 10% fetal bovine serum (FBS) and 100 units/mL penicillin–100 μg/mL streptomycin and 2 mM L-glutamine for cytotoxicity experiments. Cells were maintained at 37 °C temperature conditions containing 5% CO2. When the cells covered 95–98% of the flask, they were passaged.
The 3-(4,5-dimethylthiazol-2-yl)-2,5-diphenyltetrazolium bromide (MTT) proliferation assay was performed to evaluate the cytotoxicity of the 3 and 4 compounds. Cells were seeded at a density of 5 × 10^4 cells/cm^2 and incubated at 37 °C in 95% air, 5% CO2 environments for 24 h. Substances 3 and 4 were first dissolved in DMSO, then dilutions were prepared by dispersing them in the DMEM cell growth medium. The dose intervals of substances 3 and 4 were prepared as 400, 200, 100, 50, and 25 μM. The dose intervals of substances 3 and 4 were placed on a 24-well cell culture plate and then incubated for 24 h. After incubation, the medium was removed and replaced with the MTT-containing medium. Plates were incubated for an additional 4 h at 37 °C. MTT medium was removed, and 100 μL of DMSO was added to dissolve the formazan crystals. The absorbance was determined using a plate reader at a wavelength of 540 nm. IC50 values for 24, 48, and 72 h were calculated using GraphPad Prism5 software (GraphPad, San Diego, CA).
Our group recently determined that isoindole-1,3-dione derivatives are potential tyrosine kinase enzyme inhibitors and have antiproliferative effects against some cell lines according to MTT test results. It has been confirmed that the antiproliferative effects vary according to the nitrogen (N) atom and the groups attached to the ring. In addition, some compounds are known to exert cytotoxic effects against more than one cell line. […] Benzyl derivatives of isoindole-1,3-dione 3 and 4 were synthesized according to the method used in our previous work.[9] First, the cytotoxic effects of both compounds against A549-Luc cells were examined. IC50 values of those drugs were calculated using the MTT activity assay. Cell viability of A549-Luc cells using two compounds was followed for 24, 48, and 72 h of incubation time. According to the results of these experiments, the optimum incubation period was determined as 48 h.

CD1 mice = experiment: Acute toxicity study; type: in vivo; settings: 200 μM, 100 μL intravenously once, 2 females and 2 males, 14 days
[2] = 3 days, 200 μM, 20 μL tail vein, three doses a week, in g (unit assumed)
[3] = 7 days, 200 μM, 20 μL tail vein, three doses a week, in g (unit assumed)
[4] = 10 days, 200 μM, 20 μL tail vein, three doses a week, in g (unit assumed)
[5] = 15 days, 200 μM, 20 μL tail vein, three doses a week, in g (unit assumed)
[6] = 200 μM, 20 μL tail vein, three doses a week
[7] = initially, 200 μM in DMSO, 20 μL tail vein, three doses a week, in g (unit assumed)

| SMILES | weight of nude mice [1, 2] | weight of nude mice [1, 3] | weight of nude mice [1, 4] | weight of nude mice [1, 5] | weight of nude mice ([1]; 20 days, Ex = dead) | weight of nude mice ([1]; 30 days, Ex = dead) | weight of nude mice ([1]; 40 days, treatment discontinued on day 30, Ex = dead) | weight of nude mice ([1]; 50 days, treatment discontinued on day 30, Ex = dead) | weight of nude mice ([1]; 60 days, treatment discontinued on day 30, Ex = dead) | survival of tumor-bearing nude mice [1, 6] | weight of nude mice [1, 7] | IC50 (A549 cell lines; 24 h) | IC50 (A549 cell lines; 48 h) | IC50 (A549 cell lines; 72 h) | abnormalities in the behavior of the mice (CD1 mice) | weight of nude mice ([1]; 20 days, Ex = dead, in g (unit assumed)) | weight of nude mice ([1]; 30 days, Ex = dead, in g (unit assumed)) | weight of nude mice ([1]; 40 days, treatment discontinued on day 30, Ex = dead, in g (unit assumed)) | weight of nude mice ([1]; 50 days, treatment discontinued on day 30, Ex = dead, in g (unit assumed)) | weight of nude mice ([1]; 60 days, treatment discontinued on day 30, Ex = dead, in g (unit assumed)) |
| --- | --- | --- | --- | --- | --- | --- | --- | --- | --- | --- | --- | --- | --- | --- | --- | --- | --- | --- | --- | --- |
| CC(=O)O[C@@H]1[C@@H]2C(=O)N(Cc3ccccc3)C(=O)[C@@H]2C=C[C@H]1Cl [compound 4] | 29.17 and 26.62 and 29.35 and 24.80 and 28.90 | 33.10 and 30.76 and 32.46 and 25.32 and 30.89 | 31.71 and 30.85 and 31.40 and 27.13 and 31.24 | 35.20 and 32.46 and 31.25 and 28.34 and 32.30 | 37.08 and Ex | 35.54 and Ex | 34.30 and Ex | 30.41 and Ex | 32.95 and Ex | became Ex after 15 days; also recorded: found Ex in their cages after the 3rd dose; also recorded: four nude mice were dead; also recorded: showed Ex after the third dose | 24.57 and 22.94 and 24.50 and 23.01 and 24.01 | 349 µM | 116 µM | 83.6 µM | no abnormalities |  |  |  |  |  |
| CC(=O)O[C@H]1C=C[C@H](OC(C)=O)[C@H]2C(=O)N(Cc3ccccc3)C(=O)[C@H]21 [compound 3] | 26.25 and 24.90 and 23.54 and 27.20 | 28.50 and 25.42 and 24.87 and 29.26 and 30.77 | 28.52 and 25.98 and 25.89 and 30.26 and 32.07 | 31.02 and 28.50 and 26.43 and 32.30 and 33.71 |  |  |  |  |  | did not die; also recorded: survived for 60 days | 23.58 and 24.10 and 22.14 and 22.18 and 24.24 | 266 µM | 114 µM | 68.8 µM | no abnormalities | 32.60 and 30.60 and 28.70 and 33.78 and 36.05 | 30.90 and 29.40 and 32.96 and 34.86 | 30.81 and 31.30 and 30.31 and 32.30 and 34.31 | 30.91 and 33.40 and 31.25 and 33.12 and 34.65 | 32.39 and 34.65 and 32.60 and 33.37 and 35.95 |
